Assay results reported in patent publication US20120309934A1, “INTRACELLUAR TARGETING BIPODAL PEPTIDE BINDER” (priority 2009, published 2012).
Residues, ends and D or L forms follow the SMILES beside them. No end group written: not given here.

Assays:
Type in all cases: binding
[1] = biological target: T1, HSA (Homo sapiens, UniProt P02768); assay: Recombinant phage ELISA specificity to HSA; settings: recombinant phage ELISA against several proteins
T1 construct: purchased Genetex Inc. (Irvine)
T1 sequence (P02768 25-609): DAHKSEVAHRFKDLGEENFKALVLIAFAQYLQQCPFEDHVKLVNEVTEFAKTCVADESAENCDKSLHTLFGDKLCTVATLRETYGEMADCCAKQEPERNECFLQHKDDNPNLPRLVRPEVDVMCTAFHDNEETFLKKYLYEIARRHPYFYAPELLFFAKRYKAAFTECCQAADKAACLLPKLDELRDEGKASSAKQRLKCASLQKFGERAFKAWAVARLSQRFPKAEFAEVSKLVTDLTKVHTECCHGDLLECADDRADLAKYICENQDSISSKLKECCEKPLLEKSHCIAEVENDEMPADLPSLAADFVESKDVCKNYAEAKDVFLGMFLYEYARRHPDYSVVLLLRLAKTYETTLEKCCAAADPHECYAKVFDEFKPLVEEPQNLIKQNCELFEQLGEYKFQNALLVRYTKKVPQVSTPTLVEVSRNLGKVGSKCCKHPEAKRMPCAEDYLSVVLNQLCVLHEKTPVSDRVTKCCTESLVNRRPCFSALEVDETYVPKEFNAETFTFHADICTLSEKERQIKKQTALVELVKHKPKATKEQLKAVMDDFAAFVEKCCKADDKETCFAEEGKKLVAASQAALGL
Experimental: (§1) Specificity of recombinant phages to each protein was carried out using ELISA. Each protein (5 μg/ml) was seeded into wells (50 μl per well) in a 96-well ELISA plate and next day, all wells were washed with 0.1% PBST (Tween-20) three times, and blocked at room temperature for 2 hrs using 2% skim milk. Then, the solution was completely removed and the plate was washed with 0.1% PBST three times. Recombinant phages containing the peptide of the present invention were thoroughly mixed with 2% BSA. Each mixture (100 μl) was divided into wells coated with 10 proteins and kept to stand at 27° C. for 2 hrs. After washing with 0.1% PBST 5 times, HRP-conjugated anti-M13 antibodies (1:1,000 dilution; GE Healthcare) were added to each well and incubated at 27° C. for 1 hr. After washing with 0.1% PBST 5 times, 100 μl TMB was divided into each well to induce colorimetric reaction, followed by stopping the reaction adding 100 μl of 1 M HCl. The absorbance was measured at 450 nm.

[2] = biological target: T2, nAchR (Nicotinic acetylcholine receptor) (Mus musculus, UniProt P04756); assay: SPR (Biacore) affinity to nAchR peptide fragment
T2 construct: Biotin-[…]; (32 mer), a peptide fragment of nAchR; purchased Anigen Inc. (Korea, Kwangju), custom synthesis
T2 sequence (P04756 193-224 limits assumed): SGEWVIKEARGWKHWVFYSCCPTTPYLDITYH
Experimental: Affinity was measured using BIAcore X instrument (Biacore AB, Uppsala, Sweden). ED-B and nAchR were immobilized on streptavidin (SA) chip (Biacore) by injecting 2,000 RU biotinylated-EDB. VEGF was immobilized on CM5 chip (Biacore) using EDC/NHS. PBS (pH 7.4) was used as a running buffer.

[3] = biological target: T3, nAchR (Mus musculus, UniProt P04756); assay: Recombinant phage ELISA specificity to nAchR; settings: recombinant phage ELISA against several proteins
T3 construct: Biotin-[…]; (32 mer), a peptide fragment of nAchR; purchased Anigen Inc. (Korea, Kwangju), custom synthesis
T3 sequence (P04756 193-224 limits assumed): as above
Experimental: as §1

[4] = biological target: T4, fibronectin ED-B (Homo sapiens, UniProt P02751); assay: Recombinant phage ELISA specificity to fibronectin ED-B; settings: 450 nm, 10 proteins
T4 construct: After transformation of pET28b vector carrying fibronectin ED-B into BL21 cells; made in house; host or cells: E. coli BL21 (pET28b)
T4 sequence (P02751 1271-1359 limits assumed): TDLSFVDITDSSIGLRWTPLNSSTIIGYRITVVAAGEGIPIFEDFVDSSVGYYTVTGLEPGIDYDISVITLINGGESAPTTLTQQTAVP
Experimental: as §1

[5] = biological target: T5, VEGF (Homo sapiens, UniProt P15692); assay: Recombinant phage ELISA specificity to VEGF; settings: recombinant phage ELISA against several proteins
T5 construct: Trx (thioredoxin, pET32a) (N, cleaved yes); made in house; host or cells: E. coli AD494 (pET32a)
T5 sequence (P15692 27-147 isoform P15692-9 limits assumed): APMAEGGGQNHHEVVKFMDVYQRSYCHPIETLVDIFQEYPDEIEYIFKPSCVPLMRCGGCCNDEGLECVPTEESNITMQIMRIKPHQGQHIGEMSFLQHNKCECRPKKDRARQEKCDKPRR
Experimental: as §1

[6] = biological target: T6, STAT3 (Homo sapiens, UniProt P40763); assay: Phage ELISA to STAT3 (clone screening and specificity); settings: recombinant phage ELISA
T6 construct: endogenous in cells; host or cells: DU145
T6 sequence (P40763 whole entry, species assumed): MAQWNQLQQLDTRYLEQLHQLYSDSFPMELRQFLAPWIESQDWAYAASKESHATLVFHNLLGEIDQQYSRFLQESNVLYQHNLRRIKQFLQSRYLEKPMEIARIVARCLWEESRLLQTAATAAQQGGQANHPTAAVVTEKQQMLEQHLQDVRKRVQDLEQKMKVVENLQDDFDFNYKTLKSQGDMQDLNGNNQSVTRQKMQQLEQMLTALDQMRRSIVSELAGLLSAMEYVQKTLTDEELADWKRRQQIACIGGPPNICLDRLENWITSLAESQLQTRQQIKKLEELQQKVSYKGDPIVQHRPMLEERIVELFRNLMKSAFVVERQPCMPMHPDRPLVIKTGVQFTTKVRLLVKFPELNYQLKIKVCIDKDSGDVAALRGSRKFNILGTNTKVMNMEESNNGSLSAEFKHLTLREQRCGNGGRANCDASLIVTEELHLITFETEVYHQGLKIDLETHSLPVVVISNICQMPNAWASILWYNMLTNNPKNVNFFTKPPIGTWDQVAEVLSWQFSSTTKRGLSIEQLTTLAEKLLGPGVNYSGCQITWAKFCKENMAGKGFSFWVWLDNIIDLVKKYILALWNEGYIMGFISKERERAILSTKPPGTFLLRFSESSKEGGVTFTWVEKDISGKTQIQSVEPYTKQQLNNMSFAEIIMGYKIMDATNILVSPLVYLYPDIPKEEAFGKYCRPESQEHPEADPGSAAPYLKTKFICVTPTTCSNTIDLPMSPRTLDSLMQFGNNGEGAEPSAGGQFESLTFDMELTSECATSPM
Experimental: XL1-BLUE cells were transformed with phages recovered from the 4th biopanning step having the highest ratio of output phage to input phage, and spread in plate to produce 100-200 of plaques. Using a sterile tip, 60 plaques were inoculated in 2 ml LB-ampicillin (50 μg/ml) media and cultured at 37° C. for 5 hr with vigorous shaking. The transformed cells were infected with Ex helper phages (5×10^9 pfu/ml; OD=0.8-1.0) and cultured at 37° C. for 1 hr with shaking at 200 rpm. After removing the supernatant by centrifuging at 1,000×g for 10 min, the precipitated cells were resuspended in 1 ml LB liquid media supplemented with 50 μg/ml ampicillin and 25 μg/ml kanamycin, and cultured at 30° C. overnight with shaking at 200 rpm. The supernatant was collected by centrifuging at 10,000×g for 20 min at 4° C. and mixed with 2% skim milk, which is used in detection of phage peptides.
STAT3 (10 μg/ml), BSA (10 μg/ml) and streptavidin (10 μg/ml) each was added to 30 wells (50 μl per well) in a 96-well ELISA plate and then kept to stand at 4° C. overnight. Next day, all wells were washed with 0.1% PBST three times, and blocked at room temperature for 2 hrs using 2% skim milk diluted with PBS. Then, the solution was removed and the plate was washed with 0.1% PBST three times. […] The absorbance was measured at 450 nm to select phages which had the absorbance above 20-fold higher than BSA. […]

[7] = biological target: T7, MyD88 (Homo sapiens, UniProt Q99836); assay: Recombinant phage ELISA specificity to MyD88; settings: recombinant phage ELISA against several proteins
T7 construct: purchased Santa Cruz Biotechnology sc-4540 WB
T7 sequence (Q99836 whole entry): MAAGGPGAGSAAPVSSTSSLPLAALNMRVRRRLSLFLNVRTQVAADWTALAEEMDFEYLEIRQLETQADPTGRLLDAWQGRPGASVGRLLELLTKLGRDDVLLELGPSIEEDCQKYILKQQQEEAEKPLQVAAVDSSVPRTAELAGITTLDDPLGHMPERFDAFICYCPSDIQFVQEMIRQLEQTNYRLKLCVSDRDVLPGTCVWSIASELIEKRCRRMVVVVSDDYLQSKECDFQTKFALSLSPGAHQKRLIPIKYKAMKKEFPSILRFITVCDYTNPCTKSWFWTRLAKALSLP
Experimental: as §1
The MyD88-specific bipodal-peptide binders were analyzed to have target specificity to MyD88 by the ELISA (FIG. 6f).

[8] = biological target: T8, VCAM1 (Homo sapiens, UniProt P19320); assay: Recombinant phage ELISA specificity to VCAM1; settings: recombinant phage ELISA against several proteins
T8 construct: made in house; host or cells: E. coli AD494 (pET32a)
T8 sequence (P19320 25-739): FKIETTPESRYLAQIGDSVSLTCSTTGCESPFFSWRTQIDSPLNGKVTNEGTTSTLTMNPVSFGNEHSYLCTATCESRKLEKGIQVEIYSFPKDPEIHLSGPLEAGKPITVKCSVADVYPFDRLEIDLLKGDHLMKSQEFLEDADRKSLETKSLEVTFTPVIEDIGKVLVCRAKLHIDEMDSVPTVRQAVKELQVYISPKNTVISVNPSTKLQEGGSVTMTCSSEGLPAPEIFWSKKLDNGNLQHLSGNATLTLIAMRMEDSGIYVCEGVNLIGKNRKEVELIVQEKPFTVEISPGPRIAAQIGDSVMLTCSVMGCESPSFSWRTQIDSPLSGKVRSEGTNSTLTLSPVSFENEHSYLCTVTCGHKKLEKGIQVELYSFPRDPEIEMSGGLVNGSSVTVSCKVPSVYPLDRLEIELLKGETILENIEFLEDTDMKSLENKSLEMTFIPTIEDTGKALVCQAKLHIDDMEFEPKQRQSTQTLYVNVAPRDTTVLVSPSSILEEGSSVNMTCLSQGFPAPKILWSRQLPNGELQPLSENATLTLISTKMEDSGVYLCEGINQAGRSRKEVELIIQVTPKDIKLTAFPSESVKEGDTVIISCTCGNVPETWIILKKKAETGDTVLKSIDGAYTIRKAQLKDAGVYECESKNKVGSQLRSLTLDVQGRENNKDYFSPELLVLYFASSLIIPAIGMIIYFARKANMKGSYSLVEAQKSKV
Experimental: as §1

AASPYKGSWTWENGKWTWKGGWRMKM [Peptide 1 (Table 3e)]
specificity for HSA [1]: has specificity

EASFWLGSWTWENGKWTWKGKGTLNR [Peptide 1 (Table 3d)]
Kd [2]: 73 nM | specificity for nAchR [3]: has specificity

HCSSAVGSWTWENGKWTWKGIIRLEQ [2 (Table 3a)]
absorbance for ED-B higher than that of other proteins [4]: above 30 fold

HANFFQGSWTWENGKWTWKGWKYNQS [Peptide 1 (Table 3b)]
specificity for VEGF [5]: has specificity

HGFQWP GSWTWENGKWTWKG AYQFLK (GSWTWENGKWTWKGAYQFLK) [Peptide 2 (STAT3)]
specificity to STAT3 compared to other proteins [6]: specificity to STAT3

HSHAFYGSWTWENGKWTWKGNPGWWT [Peptide 1 (Table 3f)]
specificity for MyD88 [7]: has specificity

QAYYIPGSWTWENGKWTWKGLWGPEF [Peptide 1 (STAT3), QAYYIP GSWTWENGKWTWKG LWGPEF]
specificity to STAT3 compared to other proteins [6]: specificity to STAT3

CC[C@H](C)[C@H](NC(=O)[C@@H]1CCCN1C(=O)[C@H](CS)NC(=O)[C@@H](NC(=O)[C@H](CO)NC(=O)[C@@H]1CCCN1C(=O)CNC(=O)[C@H](CCCCN)NC(=O)[C@H](Cc1c[nH]c2ccccc12)NC(=O)[C@@H](NC(=O)[C@H](Cc1c[nH]c2ccccc12)NC(=O)[C@H](CCCCN)NC(=O)CNC(=O)[C@H](CC(N)=O)NC(=O)[C@H](CCC(=O)O)NC(=O)[C@H](Cc1c[nH]c2ccccc12)NC(=O)[C@@H](NC(=O)[C@H](Cc1c[nH]c2ccccc12)NC(=O)[C@H](CO)NC(=O)CNC(=O)[C@@H](NC(=O)[C@H](CS)NC(=O)[C@H](CC(=O)O)NC(=O)[C@H](CCCNC(=N)N)NC(=O)[C@H](C)NC(=O)[C@@H](N)CCC(N)=O)[C@@H](C)O)[C@@H](C)O)[C@@H](C)O)[C@@H](C)CC)C(=O)O [Peptide 1 (Table 3c)] (H-QARDCTGSWTWENGKWTWKGPSICPI-OH; N-terminus and C-terminus assumed)
specificity for VCAM1 [8]: has specificity
